Source: ChEMBL document CHEMBL1139973, “Synthesis and structure-activity relationships of taxuyunnanine C derivatives as multidrug resistance modulator in MDR cancer cells” (Bioorg Med Chem Lett, 2007)

Experiments:
[1] = target: T1, ATP-dependent translocase ABCB1 (Homo sapiens, UniProt P08183); assay: Inhibition of Pgp in multidrug-resistant human 2780AD cells assessed as calcein accumulation at 0.25 ug/mL relative to control; assay type: cell-based; set-up: scale not given: the % may be the effect or the level left; conditions: a2780 adr
T1 sequence (P08183 whole entry): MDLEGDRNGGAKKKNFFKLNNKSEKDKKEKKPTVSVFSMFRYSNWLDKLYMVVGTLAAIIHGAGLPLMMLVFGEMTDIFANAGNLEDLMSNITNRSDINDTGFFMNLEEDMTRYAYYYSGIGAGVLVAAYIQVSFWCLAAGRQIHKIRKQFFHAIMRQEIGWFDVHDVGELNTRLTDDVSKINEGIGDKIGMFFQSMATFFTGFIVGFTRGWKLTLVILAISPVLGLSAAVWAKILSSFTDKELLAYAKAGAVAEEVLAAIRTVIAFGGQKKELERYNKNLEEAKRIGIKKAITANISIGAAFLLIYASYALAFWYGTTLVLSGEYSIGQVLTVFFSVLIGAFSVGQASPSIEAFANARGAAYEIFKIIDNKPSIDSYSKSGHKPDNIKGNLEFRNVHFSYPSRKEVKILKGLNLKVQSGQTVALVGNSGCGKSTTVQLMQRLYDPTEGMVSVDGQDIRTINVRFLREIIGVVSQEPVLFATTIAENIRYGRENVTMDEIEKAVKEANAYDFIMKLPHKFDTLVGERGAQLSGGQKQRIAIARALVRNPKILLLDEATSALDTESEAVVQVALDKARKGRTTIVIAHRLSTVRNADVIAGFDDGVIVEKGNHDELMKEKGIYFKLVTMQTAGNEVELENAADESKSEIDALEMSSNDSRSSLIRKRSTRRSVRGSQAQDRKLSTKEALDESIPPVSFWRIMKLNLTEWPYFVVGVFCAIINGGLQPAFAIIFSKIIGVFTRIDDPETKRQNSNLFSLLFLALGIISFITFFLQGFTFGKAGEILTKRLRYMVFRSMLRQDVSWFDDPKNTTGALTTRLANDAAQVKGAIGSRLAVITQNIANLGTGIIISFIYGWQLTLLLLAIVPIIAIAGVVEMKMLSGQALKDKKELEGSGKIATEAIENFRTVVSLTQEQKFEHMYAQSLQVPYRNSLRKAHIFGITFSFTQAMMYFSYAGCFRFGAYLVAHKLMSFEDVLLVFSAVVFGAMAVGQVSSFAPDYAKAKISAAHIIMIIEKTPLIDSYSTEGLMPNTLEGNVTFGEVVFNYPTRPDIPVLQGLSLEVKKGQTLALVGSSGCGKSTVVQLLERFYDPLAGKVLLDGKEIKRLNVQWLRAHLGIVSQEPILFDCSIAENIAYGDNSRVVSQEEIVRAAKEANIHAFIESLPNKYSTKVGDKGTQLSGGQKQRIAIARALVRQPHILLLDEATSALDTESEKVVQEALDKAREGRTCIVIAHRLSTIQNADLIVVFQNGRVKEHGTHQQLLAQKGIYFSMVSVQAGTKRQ

[2] = target: T1, ATP-dependent translocase ABCB1; assay: Inhibition of Pgp in multidrug-resistant human 2780AD cells assessed as calcein accumulation at 25 ug/mL relative to control; assay type: cell-based; set-up: scale not given: the % may be the effect or the level left; conditions: a2780 adr
[3] = Growth inhibition of human WI38 cells; assay type: cell-based; conditions: WI-38
WI-38 VA13 = assay: Growth inhibition of human VA13 cells; assay type: functional, cell-based
HepG2 = assay: Growth inhibition of human HepG2 cells; assay type: functional, cell-based
[4] = target: T1, ATP-dependent translocase ABCB1; assay: Inhibition of Pgp in multidrug-resistant human 2780AD cells assessed as vincristine accumulation at 0.1 ug/mL relative to control; assay type: cell-based; set-up: scale not given: the % may be the effect or the level left; conditions: a2780 adr
[5] = target: T1, ATP-dependent translocase ABCB1; assay: Inhibition of Pgp in multidrug-resistant human 2780AD cells assessed as calcein accumulation at 2.5 ug/mL relative to control; assay type: cell-based; set-up: scale not given: the % may be the effect or the level left; conditions: a2780 adr
[6] = target: T1, ATP-dependent translocase ABCB1; assay: Inhibition of Pgp in multidrug-resistant human 2780AD cells assessed as vincristine accumulation at 1.0 ug/mL relative to control; assay type: cell-based; set-up: scale not given: the % may be the effect or the level left; conditions: a2780 adr
[7] = target: T1, ATP-dependent translocase ABCB1; assay: Inhibition of Pgp in multidrug-resistant human 2780AD cells assessed as vincristine accumulation at 10 ug/mL relative to control; assay type: cell-based; set-up: scale not given: the % may be the effect or the level left; conditions: a2780 adr
[8] = target: T1, ATP-dependent translocase ABCB1; assay: Inhibition of Pgp in multidrug-resistant human 2780AD cells assessed as vincristine accumulation at 0.1 ug/mL relative to verapamil; assay type: cell-based; set-up: scale not given: the % may be the effect or the level left; conditions: a2780 adr
[9] = target: T1, ATP-dependent translocase ABCB1; assay: Inhibition of Pgp in multidrug-resistant human 2780AD cells assessed as vincristine accumulation at 1.0 ug/mL relative to verapamil; assay type: cell-based; set-up: scale not given: the % may be the effect or the level left; conditions: a2780 adr
[10] = target: T1, ATP-dependent translocase ABCB1; assay: Inhibition of Pgp in multidrug-resistant human 2780AD cells assessed as vincristine accumulation at 10 ug/mL relative to verapamil; assay type: cell-based; set-up: scale not given: the % may be the effect or the level left; conditions: a2780 adr
A2780 [11] = assay: Cytotoxicity against human A2780 cells assessed as cell viability at 0.2 uM; assay type: functional; conditions: read-out: Activity
A2780 [12] = assay: Cytotoxicity against human A2780 cells assessed as cell viability at 2 uM; assay type: functional; conditions: read-out: Activity
A2780 [13] = assay: Cytotoxicity against human A2780 cells assessed as cell viability at 10 uM; assay type: functional; conditions: read-out: Activity
[14] = Cytotoxicity against multidrug-resistant human 2780AD cells assessed as cell viability at 0.2 uM; assay type: functional; conditions: A2780 ADR, read-out: Activity
[15] = Cytotoxicity against multidrug-resistant human 2780AD cells assessed as cell viability at 2 uM; assay type: functional; conditions: A2780 ADR, read-out: Activity
[16] = Cytotoxicity against multidrug-resistant human 2780AD cells assessed as cell viability at 10 uM; assay type: functional; conditions: A2780 ADR, read-out: Activity
A2780 [17] = assay: Growth inhibition of human A2780 cells; assay type: functional, cell-based
[18] = Growth inhibition of multidrug-resistant human 2780AD cells; assay type: functional, cell-based; conditions: A2780 ADR

| SMILES | Activity [1] [%] | Activity [2] [%] | IC50 (HepG2) [µM] | Activity [4] [%] | Activity [5] [%] | Activity [6] [%] | Activity [7] [%] | Activity [8] [%] | Activity [9] [%] | Activity [10] [%] | IC50 (A2780 [17]) [µM] | IC50 [3] [µM] | IC50 (WI-38 VA13) [µM] | viability at 0.2 µM (A2780 [11]) [%] | viability at 2 µM (A2780 [12]) [%] | viability at 10 µM (A2780 [13]) [%] | viability at 0.2 µM [14] [%] | viability at 2 µM [15] [%] | viability at 10 µM [16] [%] | IC50 [18] [µM] |
| --- | --- | --- | --- | --- | --- | --- | --- | --- | --- | --- | --- | --- | --- | --- | --- | --- | --- | --- | --- | --- |
| C=C1[C@@H](OC(C)=O)CC[C@@]2(C)C[C@H](OC(C)=O)C3=C(C)C[C@H](O)[C@@H]([C@@H](OC(C)=O)[C@H]12)C3(C)C | 104 | 148 | 216 | 102 | 86 | 147 | 242 | 94 | 79 | 53 |  | 133 | 80 | 97 | 95 | 20 | 101 | 96 | 77 |  |
| COc1cccc2c1C(=O)c1c(O)c3c(c(O)c1C2=O)C[C@@](O)(C(=O)CO)C[C@@H]3O[C@H]1C[C@H](N)[C@H](O)[C@H](C)O1 [DOXORUBICIN] |  |  |  |  |  |  |  |  |  |  | 0.0057 |  |  |  |  |  |  |  |  | 0.298 |
| CC(=O)O[C@H]1C(=O)[C@@]2(C)[C@H]([C@H](OC(=O)c3ccccc3)[C@]3(O)C[C@H](OC(=O)[C@H](O)[C@@H](NC(=O)c4ccccc4)c4ccccc4)C(C)=C1C3(C)C)[C@]1(OC(C)=O)CO[C@@H]1C[C@@H]2O [PACLITAXEL] |  |  |  |  |  |  |  |  |  |  |  |  |  |  |  |  |  |  |  | 183 |

More lines, main results first:

| Activity [1] [%] | Activity [2] [%] | IC50 (HepG2) [µM] | Activity [4] [%] | Activity [5] [%] | Activity [6] [%] | Activity [7] [%] | Activity [8] [%] | Activity [9] [%] | Activity [10] [%] | IC50 (A2780 [17]) [µM] | SMILES | IC50 [3] [µM] | IC50 (WI-38 VA13) [µM] | viability at 0.2 µM (A2780 [11]) [%] | viability at 2 µM (A2780 [12]) [%] | viability at 10 µM (A2780 [13]) [%] | viability at 0.2 µM [14] [%] | viability at 2 µM [15] [%] | viability at 10 µM [16] [%] | IC50 [18] [µM] |
| --- | --- | --- | --- | --- | --- | --- | --- | --- | --- | --- | --- | --- | --- | --- | --- | --- | --- | --- | --- | --- |
| 107 | 190 | 15.7 | 121 | 132 | 272 | 527 | 111 | 146 | 116 | 6.1 | C=C1[C@@H](OC(C)=O)CC[C@@]2(C)C[C@H](O)C3=C(C)C[C@H](OC(=O)/C=C/c4ccccc4)[C@@H]([C@@H](OC(C)=O)[C@H]12)C3(C)C | 13.5 | 37.4 | 89 | 74 | 27 | 105 | 86 | 38 | 8 |
|  |  |  |  |  |  |  |  |  |  | 0.0031 | CC[C@]1(O)C[C@H]2CN(CCc3c([nH]c4ccccc34)[C@@](C(=O)OC)(c3cc4c(cc3OC)N(C=O)[C@H]3[C@@](O)(C(=O)OC)[C@H](OC(C)=O)[C@]5(CC)C=CCN6CC[C@]43[C@@H]65)C2)C1 [VINCRISTINE] |  |  |  |  |  |  |  |  | 0.311 |
